This assay concerns the target T1, VCAM-1 (Mus musculus, UniProt P29533).
T1 construct: from tissue; host or cells: liver of Balb/c mice in vivo, Con-A-induced hepatitis
T1 sequence (P29533 25-739): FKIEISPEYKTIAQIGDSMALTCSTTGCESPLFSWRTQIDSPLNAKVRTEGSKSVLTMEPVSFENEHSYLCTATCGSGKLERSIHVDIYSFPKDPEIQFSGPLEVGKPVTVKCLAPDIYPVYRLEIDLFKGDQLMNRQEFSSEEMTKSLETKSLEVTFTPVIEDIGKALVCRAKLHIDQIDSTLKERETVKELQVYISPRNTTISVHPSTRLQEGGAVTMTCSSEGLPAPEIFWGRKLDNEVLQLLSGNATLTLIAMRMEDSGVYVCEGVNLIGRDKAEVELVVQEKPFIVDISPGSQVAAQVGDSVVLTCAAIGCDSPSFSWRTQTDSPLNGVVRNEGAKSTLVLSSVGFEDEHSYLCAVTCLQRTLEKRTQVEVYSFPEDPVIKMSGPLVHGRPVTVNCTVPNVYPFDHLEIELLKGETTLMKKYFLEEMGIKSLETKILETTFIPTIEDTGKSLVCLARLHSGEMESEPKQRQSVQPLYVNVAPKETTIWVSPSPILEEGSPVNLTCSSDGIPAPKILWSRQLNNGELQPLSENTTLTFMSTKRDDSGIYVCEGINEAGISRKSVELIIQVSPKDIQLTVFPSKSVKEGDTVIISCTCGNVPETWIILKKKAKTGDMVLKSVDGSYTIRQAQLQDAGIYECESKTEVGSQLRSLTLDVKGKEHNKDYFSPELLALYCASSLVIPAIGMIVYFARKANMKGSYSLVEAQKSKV
Nature of the assay: MRI in vivo on a model of Con-A-induced hepatitis in mice. The settings on record: 100 μmol Gd/kg i.v., FIG. 3. As for the experimental part: Before the MRI acquisition, the mice are anesthetized with pentobarbital. All the experiments are carried out on a 200 MHz Bruker spectrometer (4.7 T) equipped with a vertical magnet and with a microimaging system.
The hepatitis is induced by i.v. injection of 20 mg/kg of Con-A in Balb/c mice weighing approximately 26 g. The literature reports that VCAM-1 is massively expressed in the liver between 4 and 8 hours after the injection of Con-A. The MRI protocol is the following: (1) the precontrast MRI begins 4h30 after the injection of Con-A; (2) the contrast product is injected at the dose of 100 μmol Gd/kg approximately 5 h after the injection of Con-A; (3) several post-contrast acquisitions are carried out for 1 h30 every 7 minutes. […]
For the two models, the SI values are measured in various regions of interest (at the level of the arterial wall of the abdominal aorta or whole liver) using the OSIRIS image analysis software. […] The SI value is measured on all the image slices where the arterial wall and the liver are visible. […] The increase in the signal/noise ratio (% ΔSNR) is calculated according to the following equation: % ΔSNR=[(SIpost/SDnoise)−(SIpre/SDnoise)]/[SIpre/SDnoise]×100 where SDnoise is the standard deviation of the noise measured on a region outside the animal.

As to `O=C([O-])CN1CCN(CC(=O)[O-])CCN(CC(=O)O)CCN(CC(=O)[O-])CC1.[Gd+3]` [Gd-DOTA], the “change in signal/noise ratio (% ΔSNR) of the liver over time, hepatitis versus healthy mouse” value is listed as “substantially identical”.
